The nature of data set [1]: PK test experiments in beagle dogs. Type of data set: in vivo. To be noted: for AUC(0-inf) / AUC(0-t) / Cmax / clearance: male, dog, plasma. As to the method:
The PK test in vivo of the compound of the present invention in beagle dogs (body weight 10-12 kg, male, age 10-12 months, 3 per group with oral administration, 3 per group with intravenous injection) The beagle dog was […] After administration, venous blood was collected at time points (0.083, 0.25, 0.5, 1, 2, 4, 6, 8 and 24 hours) and collected in an anticoagulation tube to which EDTA-K2 was added. Plasma samples were extracted by liquid-liquid extraction and quantitatively analyzed by multiple reaction ion monitoring (MRM) on a triple quadrupole tandem mass spectrometer. Pharmacokinetic parameters were calculated using a noncompartmental method by WinNonLin 6.3 software.

For a further data set, the system named is HBV DNA replication. The data set can be described thus: Inhibition experiment on HBV virus replication (HepG 2,2,15 cells, supernatant HBV DNA by qPCR). The class given is cell-based. Particulars: Hepatitis B virus, HepG2.2.15, 10 days treatment, supernatant HBV DNA on day 11. The text has this: (§1) The chromosomal integration of HepG2,2,15 cells (SELLS, PNAS, 1987 and SELLS, JV, 1988) has a complete HBV genome and stably expresses viral RNA and viral proteins. HepG2,2,15 cells are capable of secreting mature hepatitis B virus particles and HBsAg into the culture medium. Virus particles DNA and HBsAg secreted by HepG 2,2,15 cells can be quantified by qPCR and ELISA, and the effects of compounds on viral replication and HBsAg secretion can be detected.
HepG 2,2,15 cells were inoculated with 8,000 per cell to 96-well cell culture plates in duplicate, and were cultured for 3 days until the cells grew to full-hole. Cells were treated with 4-fold serial dilutions of compounds for 10 days, and were given once every other day. The final concentration of DMSO in all pores was 0.5% and DMSO was used as a drug-free control. The supernatant was collected for quantitative detection of HBV DNA on day 11.
Viral genomic DNA was detected by qPCR method, and HBV primers were as follows: […]
The SYBR Premix Ex Taq D-Takara DRR081S kit was used, and 1 μL of cell culture supernatant was used as a template. A standard curve was made using a plasmid containing the HBV genome, and the viral copy number was calculated using the standard curve. Concentration-virus copy number was processed using Graphpad Prism 5 software, and IC50 of compounds inhibiting virus replication was calculated by four-parameter nonlinear regression model.

The test system of another data set is HBsAg secretion. Kind of data set: Inhibition experiment on HBsAg secretion (HepG 2,2,15 cells, ELISA). The class given is cell-based. To be noted: Hepatitis B virus, HepG2.2.15, read-out: HBsAg IC50.
Excerpt: as §1
HepG 2,2,15 cells were inoculated with 8,000 per cell to 96-well cell culture plates in duplicate, and were cultured for 3 days until the cells grew to full-hole. Cells were treated with 4-fold serial dilutions of compounds for 10 days, and were given once every other day. The final concentration of DMSO in all pores was 0.5% and DMSO was used as a drug-free control. The supernatant was collected for quantitative detection of HBsAg on day 11.
The level of HBsAg secreted by the cells after treatment of the compound was detected by ELISA method, and the method used a hepatitis B surface antigen diagnostic kit (Shanghai Kehua Biotech Co., Ltd. S10910113). 25 μL of the supernatant to be assayed (PBS was diluted to 75 μL) was added to per well in the ELISA plate, and the kit positive control and negative control were set. The ELIS A plate was blocked with a cover paper and incubated at 37° C. for 60 minutes. The ELISA plate was taken out, and the cover paper was teared off, and 50 μL of enzyme conjugate was added to each well. The ELISA plate was oscillated on the shaker for 10 seconds, blocked with a cover paper and incubated at 37° C. for 30 minutes. The ELISA plate was taken out, the cover paper was teared off, and the ELISA plate was washed 5 times: each time the liquid in the hole was discarded, and the washing liquid was filled into the holes, left to stand for 60 seconds, dried, and the liquid residue was patted to dry on the absorbent paper. A freshly prepared mixture of Developer A and Developer B was added to all wells immediately after washing: 100 μL per well. The ELISA plate was oscillated on the shaker for 10 seconds, blocked with a cover paper and incubated at 37° C. for 30 minutes. 50 μL of stop solution was added to all wells. Absorbance was read on the Envision plate reader at a wavelength of 450 nm.
Concentration-HBsAg OD450 was processed using Graphpad Prism 5 software, and IC50 of compounds inhibiting against HBsAg secretion was calculated by four-parameter nonlinear regression model.
Background: An ELISA detects its analyte on a solid surface through an enzyme-linked reagent.

The nature of data set [2]: PK test experiments in SD rats. Type of data set: in vivo. Details: VSS: unit not given here. As to the method: The PK test in vivo of the compound of the present invention in SD rats (body weight 200-250 g, male, age 2-3 months, 3 per group with oral administration, 3 per group with intravenous injection) The SD rat was administered orally with 2.5 mg/kg or 5 mg/kg of the compound tested or intravenously injected with 0.5 mg/kg or 1 mg/kg of the compound tested. After administration, venous blood was collected at time points (0.083, 0.25, 0.5, 1, 2, 5, 7 and 24 hours) and collected in an anticoagulation tube to which EDTA-K2 was added. Plasma samples were extracted by liquid-liquid extraction and quantitatively analyzed by multiple reaction ion monitoring (MRM) on a triple quadrupole tandem mass spectrometer. Pharmacokinetic parameters were calculated using a noncompartmental method by WinNonLin 6.3 software.

By AUC(0-inf) is commonly meant total exposure, with the tail of the curve extrapolated. One may read the AUC(0-t) as exposure summed from dosing to a finite time, without extrapolation to infinity. As a reminder, the Cmax is the maximum level reached in the sampled fluid or tissue. One may read the clearance as a measure of how efficiently the substance is removed, as volume per time. Broadly, the IC50 is the concentration that gives 50% inhibition. In data set [1] (IV, 0.5 mg/kg), `CC(C)N1Cc2cc(-c3cnn(C(F)F)c3)c3c(c2-c2cc(=O)c(C(=O)O)cn21)CCO3` [Example 43, 4-(1-(Difluoromethyl)-1H-pyrazol-4-yl)-7-isopropyl-11-oxo-2,6,7,11-tetrahydro-1H-furo[2,3-h]pyrido[2,1-a]phthalazine-10-carboxylic Acid] registered a VSS of 0.48 kg⁻¹, an AUC(0-inf) of 9990 ng·h/mL, an AUC(0-t) of 9030 ng·h/mL and a Cmax of 1080 ng/mL. In data set [1] (IV, 0.5 mg/kg), this molecule had a clearance of 0.83 mL/min/kg. In data set [1] (PO, 2.5 mg/kg), this molecule gave an F of 100.7%, an AUC(0-inf) of 49300 ng·h/mL, an AUC(0-t) of 45500 ng·h/mL and a Cmax of 5770 ng/mL. For the same molecule, 1.85 nM corresponded to half-maximal inhibition with HBV DNA replication (IC50). For the same molecule, the IC50 with HBsAg secretion is 0.98 nM.
For the molecule `CC(C)N1Cc2cc(OCCC3CC3)c3c(c2-c2cc(=O)c(C(=O)O)cn21)CCO3` [Example 15, 4-(2-Cyclopropylethoxy)-7-isopropyl-11-oxo-2,6,7,11-tetrahydro-1H-furo [2,3-h]pyrido[2,1-a]phthalazine-10-carboxylic Acid], the VSS turned out to be 0.23 kg⁻¹ in data set [1] (IV, 0.5 mg/kg) and 0.9 in data set [2] (IV, 1 mg/kg). In addition, the F amounted to 102.2% in data set [1] (PO, 2.5 mg/kg) and 157.9% in data set [2] (PO, 5 mg/kg). For the same molecule, the AUC(0-inf) in data set [1] (IV, 0.5 mg/kg) came to 12200 ng·h/mL; in data set [1] (PO, 2.5 mg/kg), 62400 ng·h/mL; in data set [2] (male, rat, plasma, IV, 1 mg/kg), 2280 ng·h/mL; in data set [2] (male, rat, plasma, PO, 5 mg/kg), 17800 ng·h/mL. Moreover, the exposure AUC(0-t) in data set [1] (IV, 0.5 mg/kg) is 11900 ng·h/mL; in data set [1] (PO, 2.5 mg/kg), 60500 ng·h/mL; in data set [2] (male, rat, plasma, IV, 1 mg/kg) it was 2140 ng·h/mL; in data set [2] (male, rat, plasma, PO, 5 mg/kg), 17700 ng·h/mL. For the same molecule, the Cmax in data set [1] (IV, 0.5 mg/kg) is 2010 ng/mL; in data set [1] (PO, 2.5 mg/kg), 7090 ng/mL; in data set [2] (male, rat, plasma, IV, 1 mg/kg), 1500 ng/mL; in data set [2] (male, rat, plasma, PO, 5 mg/kg) it was 2170 ng/mL. Moreover, the clearance in data set [1] (IV, 0.5 mg/kg) turned out to be 0.69 mL/min/kg; in data set [2] (male, rat, plasma, IV, 1 mg/kg) it was 7.32 mL/min/kg. In addition, the results for the IC50 with HBV DNA replication and in the data set with HBsAg secretion were 1.81 nM and 3.13 nM, respectively.

The values are drawn from patent publication US11447498B2, “Fused tetracyclic compounds and uses thereof in medicine” (SUNSHINE LAKE PHARMA CO., LTD., priority 2018, dated 2022).
